According to patent publication US20040152700A1, “Novel use of 2-phenyl-substituted imidazotriazinones” (priority 2001, published 2004):

Assays:
[1] = test system: memory capability of mice; conditions: avoidance test; cited from earlier work
[2] = test system: memory power of rats (object recognition); experiment: Object recognition test; assay type: in vivo; conditions: oral 1.0, 3.0 or 10 mg/kg in Tylose immediately after first passage, second passage 24 hours later
Experimental: The object recognition test is a memory test. It measures the ability of rats (and mice) to differentiate between known and unknown objects.
The test was carried out as described (Blokland et al. NeuroReport 1998, 9, 4205-4208; Ennaceur, A., Delacour, J., Behav. Brain Res. 1988, 31, 47-59; Ennaceur, A., Meliani, K., Psychopharmacology 1992, 109, 321-330; Prickaerts, et al. Eur. J. Pharmacol. 1997, 337, 125-136).
In a first passage, a rat is confronted with two identical objects in an otherwise empty relatively large observation arena. The rat will investigate, i.e. sniff and touch, both objects thoroughly. In a second passage, after an interval of 24 hours, the rat is again placed in the observation arena. One of the known objects is now replaced by a new, unknown object. If a rat recognizes the known object, it will especially investigate the unknown object. After 24 hours, however, a rat has normally forgotten which object it has already investigated in the first passage, and will therefore inspect both objects to the same extent. […] It will investigate the new, unknown object in more detail than the already known one. This memory power is expressed in a discrimination index. […]

| Compound | action on the memory capability [1] | memory power in the second passage compared with the control condition [2] |
| --- | --- | --- |
| CCCc1nn(C)c2c(=O)[nH]c(-c3cc(S(=O)(=O)N4CCN(C)CC4)ccc3OCC)nc12 [Sildenafil, 5-[2-ethoxy-5-(4-methylpiperazin-1-ylsulphonyl)phenyl]1,6-dihydro-1-methyl-3-propylpyrazolo[4,3-d]pyrimidin-7-one] | improving action | – |
| CCCc1nc(C)c2c(=O)[nH]c(-c3cc(S(=O)(=O)N4CCN(C)CC4)ccc3OCC)nn12 [Example 1, 2-[2-ethoxy-5-(4-methyl-piperazine-1-sulphonyl)-phenyl]-5-methyl-7-propyl-3H-imidazo[5,1-f][1,2,4]triazin-4-one] | – | improved |
